Test results reported in patent US10655140B2, “Herbicide-resistant protein, encoding gene and use thereof” (BEIJING DABEINONG BIOTECHNOLOGY CO., LTD., priority 2015, dated 2020).

Legend:
[1] = tested on: Corn plants containing 24DT22 nucleotide sequence, control nucleotide sequence and wild type corn plants; assay: Herbicide-resistance effect test of transgenic corn T1 plants (prop/brace root development); format: in vivo, corn (Zong 31); conditions: 21 days after spraying
Description: Herbicide resistance effects tests to 2,4-D dimethyl ammonium salt and agroxone of corn plants containing 24DT22 nucleotide sequence, control nucleotide sequence respectively and wild type corn plants (stages V3-V4) were performed respectively.
Corn plants containing 24DT22 nucleotide sequence, control nucleotide sequence respectively and wild type corn plants were taken and spayed with 2,4-D dimethyl ammonium salt (8960 g ae/ha, 16-folds concentration in field), agroxone (8960 g ae/ha, 16-folds concentration in field) and blank solvent (water) respectively. Prop root development was counted 21 days after spaying. Three strains (S6, S7 and S8) of corn plants transformed with 24DT22 nucleotide sequence, two strains (S9 and S10) of corn plants transformed with control nucleotide sequence and 1 strain of wild type (CK2) corn were selected and 10-15 plants from each stain were tested.

[2] = tested on: Soybean plants containing 24DT22 nucleotide sequence, control nucleotide sequence and wild type soybean plants; assay: Herbicide resistance effect test of transgenic soybean T1 plants (spraying, damage degree); format: in vivo, soybean (Zhonghuang 13); conditions: for Average damage % 6HAT: 6 hours after spraying; for Average damage % 2DAT: 2 days after spraying
Description: Herbicide resistance effects tests to 2,4-D dimethyl ammonium salt and agroxone of soybean plants containing 24DT22 nucleotide sequence and control nucleotide sequence respectively and wild type soybean plants (stages V3-V4) were performed respectively.
Soybean plants containing 24DT22 nucleotide sequence, control nucleotide sequence and wild type soybean plants were taken and spayed with 2,4-D dimethyl ammonium salt (2240 g ae/ha, four-folds concentration in field), agroxone (2240 g ae/ha, four-folds concentration in field) and blank solvent (water). Take statistics of the damage degree of each plant caused by herbicides according to the curling degree of leaves and the damage degree of growing point six hours ([…]), two days (2DAT), seven days (7DAT) and 14 days (14DAT) after spraying respectively: if leaves are flat like wild-type leaves and the growing point is intact, the damage degree is 0%; if leaves curl up and wilt and the growing point is died, the damage degree is 100%. There are three strains contained a transferred 24DT22 nucleotide sequence (S1, S2 and S3), two strains contained a transferred control sequence (S4 and S5) and one wild-type strain (CK1) in total; select 10-15 plants from each strain for testing.

[3] = tested on: Arabidopsis T1 plants transformed with 24DT22 nucleotide sequence, control nucleotide sequence and wild-type Arabidopsis plants; assay: Herbicide resistance effect test of transgenic Arabidopsis T1 plants (spraying); format: in vivo, Arabidopsis thaliana; conditions: Arabidopsis genotype 24DT22; for High resistant (number of plants): 560 g ae/ha (1-fold field concentration), growth consistent with blank solvent 7 days after spraying; for Moderate resistant (number of plants): curly rosette leaves 7 days after spraying; for Low resistant (number of plants): incapable of bolting 14 days after spraying
Excerpt: 24DT22 gene was used to transform Arabidopsis for the first time. At first, T1 transformants were selected from the background of un-transformed seeds, using glufosinate-ammonium selection scheme. About 20000 T1 seeds are screened among which 314 strains of T1 generation positive transformants (PAT gene) were identified, i.e. the transformation efficiency was about 1.6%. Herbicide resistance effect tests to 2,4-D dimethyl ammonium salt and agroxone of Arabidopsis T1 plants transformed with 24DT22 nucleotide sequence, control nucleotide sequence respectively and wild-type Arabidopsis plants were performed after 18 days of planting.
Arabidopsis T1 plants transformed with 24DT22 nucleotide sequence, control nucleotide sequence respectively and wild-type Arabidopsis plants were sprayed with 2,4-D dimethyl ammonium salt (560 g ae/ha, 1-fold concentration in field), agroxone (560 g ae/ha, 1-fold concentration in field) and blank solvent (water). Resistance conditions of the plants were counted 7 days and 14 days after spraying. Plants with growth conditions consistent with blank solvent (water) 7 days after spaying were classified as highly resistant plants; Plants with curly rosette leaves 7 days after spaying were classified as moderately resistant plants; Plants incapable of bolting 14 days after spaying were classified as low-resistant plants and the dead plants 14 days after spaying were classified as non-resistant plants. Because each Arabidopsis T1 plant is an independent transformation event, significant differences of individual T1 responses can be expected under a given dose.

[4] = corn strain S8 (24DT22), 8960 g ae/ha
[5] = soybean strain S1 (24DT22), 2240 g ae/ha (4-fold field concentration)
[6] = soybean strain S2 (24DT22), 2240 g ae/ha
[7] = soybean strain S3 (24DT22), 2240 g ae/ha

SMILES	Abnormal development of brace roots (number of plants) ([1]; corn strain CK2 (wild type), 8960 g ae/ha)	Normal development of brace roots (number of plants) [1, 4]	Average damage % 6HAT [2, 5] [%]	Average damage % 6HAT [2, 6] [%]	Average damage % 6HAT [2, 7] [%]	Average damage % 2DAT [2, 7] [%]	High resistant (number of plants) [3]	Moderate resistant (number of plants) ([3]; 560 g ae/ha)	Non-resistant (number of plants) ([3]; 560 g ae/ha, dead 14 days after spraying)	Low resistant (number of plants) ([3]; 560 g ae/ha)	Normal development of brace roots (number of plants) ([1]; corn strain S6 (24DT22), 8960 g ae/ha (16-fold field concentration))	Normal development of brace roots (number of plants) ([1]; corn strain S7 (24DT22), 8960 g ae/ha)	Abnormal development of brace roots (number of plants) ([1]; corn strain S10 (control sequence), 8960 g ae/ha)	Average damage % 2DAT [2, 6] [%]	Average damage % 7DAT ([2]; soybean strain S2 (24DT22), 2240 g ae/ha, 7 days after spraying) [%]
CNC.O=C(O)COc1ccc(Cl)cc1Cl [2,4-D dimethyl ammonium salt]	15	10	6	11	3	0	28	1	0	2	–	–	–	–	–
Cc1cc(Cl)ccc1OCC(=O)O [agroxone]	–	13	10	16	7	4	25	3	–	1	13	14	11	11	6
